Reference: patent US8596358B2, “Well treatment” (Statoil ASA, priority 2004, dated 2013)
Values after ≈ are worked out from the molar mass of the structure shown.

How the values were obtained:
fish = experiment: Fish toxicity (LC50 fish); conditions: in vivo
Description: (§1) Materials for use in the invention include organosilanes, for example organosilane hydrides, organosilane alkoxides and organosilane amines. Organosilane compounds have the advantage that they are typically oil-soluble and react with water. […] Organosilanes for use in the invention preferably have a biodegradability of at least 60%. Whilst not wishing to be bound by theory, it is believed that organosilane compounds react with water and hydrolyse. The resulting chemicals then react with siliceous surfaces in the formation (e.g. the surface of silica sand), coat any sand particles, bind them in place by the formation of bridges and restrict their movement. The advantage of bifunctional organosilanes is their ability to bind two particles together.

daphnia = experiment: Daphnia toxicity (EC50 daphnia); conditions: in vivo
Description: as §1

algae = experiment: Algae toxicity (IC50 algae); assay type: cell-based
Description: as §1

[1] = Biodegradability according to OECD 306; conditions: as tested according to OECD 306
Description: as §1

For `CCO[Si](CCCNCCC[Si](OCC)(OCC)OCC)(OCC)OCC` [DYNASYLAN bis-AMEO], the LC50 fish (fish) was > 200 µg/mL, the EC50 daphnia (daphnia) was > 200 µg/mL and the IC50 algae (algae) was 125 µg/mL (≈ 294 µM).

`CCO[Si](CCCN)(OCC)OCC` [DYNASYLAN AMEO, 3-amino-propyltriethoxysilane] showed an LC50 fish (fish) of 934 µg/mL (≈ 4220 µM) and a biodegradability [1] of 67%.
